The results in this text go back to US8106092B2, “Treatment of solid cancers” (priority 2004, dated 2012).

The test system of test [1] is B16 tumors. In words: Example 2: sub-optimal topical PEP005 combined with M720/B16 vaccination and DC+IL-2, cure of primary B16 tumors. In kind it is in vivo, C57BL/6 mice. The source says:
To determine whether PEP005 (ingenol-3-angelate) treatment could synergize with (i) vaccine-induced anti-cancer CD4^+ T-cells/antibodies and/or (ii) DC vaccine-induced anti-cancer CD8^+ T-cells, topical PEP005 treatment was combined with vaccination using (i) B16 lysate emulsified in Montanide ISA 720 adjuvant (M720/B16) and (ii) DC2.4 cells sensitized with TRP-2 peptide, SVYDFFVWL [SEQ ID NO:1] (a dominant CD8^+ T-cell epitope for anti-B16 CM^+ T-cells) and activated with LPS (Camporeale et al, Can Res 63:3688, 2003) (DC). The latter group also received IL-2 to maintain the vaccine induced T-cells. The topical PEP005 dose (10 μg/mouse) was known not to be sufficient to cure most B16 tumors of reasonable size. Thus, this experiment sought to determine whether improvements in B16 cure rate could be achieved when sub-optimal topical PEP005 treatment was combined with other immune-based therapies.
B16 tumors were injected 2×10^4 s.c. in groups (n=5 per group) of C57BL/6 mice and after 12 days (d0) had reached 8-12 mm^2 in size. The groups of animal received the following treatments:
PEP005: On d0, the tumors in this group were treated topically with PEP005, 10 μg/mouse in 10 μl isopropanol gel.
PEP005+M720: On d−5 (day minus 5), the animals had received Montanide ISA 720 adjuvant (M720) emulsified 7:3 v:v (Elliott et al, Vaccine. 17(15-16):2009-2019, 1999) with water (volume 100 μl/mouse s.c.) and on d0, the tumors in this group were treated topically with PEP005.
PEP005+M720/B16: On d−5, the animals had received Montanide ISA 720 adjuvant (M720) emulsified 7:3 v:v (Elliott et al, 1999 supra) with B16 cell lysate (3×10^5 B16 cells per mouse s.c., volume 100 μl/mouse) and on d0, the tumors in this group were treated topically with PEP005. A modality was known to induce CD4^+ T-cells specific for B16.
PEP005+M720/B16+DC+IL-2: On d0, the tumors in this group were treated topically with PEP005 and had been given M720/B16 as for Group 4. The group also received on d0 DC in the form of a DC cell line, DC2.4. These cells were (i) sensitized with TRP-2 peptide, SVYDFFVWL [SEQ ID NO:1] […]

For test [2], the system named is Lewis lung-OVA tumors. In words: PEP005-mediated cure of primary Lewis lung-OVA tumors, challenge with secondary Lewis lung-OVA. In kind it is in vivo, C57BL/6 mice. The protocol: FIGS. 4A to D are graphical representations showing protection against secondary tumors following cure of primary tumors with PEP005. (A) C57BL/6 mice received 5×10^5 Lewis lung-OVA s.c. on the back on day less 7 (d−7). When these primary tumors had reached an average 13.6 mm^2±1.8 SE (range 10-25 mm^2) on d0 they were treated once with 16 μg of PEP005 delivered i.t. In eight mice these primary tumors were cured, and these mice received 5×10^5 Lewis lung-OVA s.c. on d4 on the opposite flank from the primary tumors. The emergence of these secondary tumors was monitored over time (PEP005 cured). In a parallel group of animals (n=5) PEP005 treatment regressed the primary tumors, but after 11-13 days the primary tumors re-emerged. These animals also received secondary tumors as above and their emergence was again monitored over time (PEP005 regressed). Two control groups were included. One group (n=6) received no primary tumors, but was treated s.c. with PEP005 and received secondary tumors on the opposite flank (white triangles, PEP005 s.c.). The second control group (n=8) also received no primary tumors, was not treated with PEP005, and received secondary tumors as above (Controls). […] The experiment in (A) was repeated in Foxnl^nu mice; PEP005 cured (n=4), PEP005 regressed (n=7), Control (n=7). A PEP005 s.c. group was not included. (C) Treatment of primary Lewis lung-OVA with PEP005 induced SIINFEKL-specific CD8^+ T-cell responses using IFNγ ELISPOT when the secondary tumors had emerged or on d50. (D) Reduced growth of B16-OVA lung metastases following successful treatment of s.c. B16-OVA tumors with PEP005. C57BL/6 mice received 5×10^5 B16-OVA s.c. on the back on d−6. When these primary tumors had reached 10-20 mm^2 on d0, they were treated once with 18 μg of PEP005 delivered i.t., which cured the tumors in eight mice (PEP005 cured) and regressed the tumors in five mice (PEP005 regressed). Controls as above. Secondary B16-OVA (10^5) were injected i.v. on d6 and animals were sacrificed on d27 and lung metastases counted.
B16 and B16 cells stably expressing ovalbumin (B16-OVA)were grown s.c. in C57BL/6 mice as described previously (Ogbourne et al, Cancer Res 64:2833-2839, 2004; Anraku et al, J Virol 76:3791-3799, 2002). Lung metastases were established as described (Zeh et al, J Immunol 162:989-994, 1999). Lewis lung-OVA (Nelson et al, J Immunol 166:5557-5566, 2001) were grown s.c. in C57BL/6 as described (Lenarczyk et al, Vaccine 22:963-974, 2004).
Tumors were treated by topical or intratumoral (i.t.) injection (using a 26 gauge needle) of (i) PEP0005 dissolved in acetone and then RPMI 1640 (final concentration of acetone 4%), or (ii) PEP005 formulated in PEG400. […]

As to `C/C=C(/C)C(=O)O[C@H]1C(C)=C[C@]23C(=O)[C@@H](C=C(CO)[C@@H](O)[C@]12O)[C@H]1[C@@H](C[C@H]3C)C1(C)C` [PEP005, ingenol-3-angelate], in test [1] (all PEP005 treated tumors), the “regression of treated tumors” value is “regressed by treatment to below detectable size”. Further, the “day on which tumor became visible again / emerged” value in test [1] (day (d) after treatment on d0, growth curves FIG. 7) was 4-5. Further, the “treated tumors re-emerging (failure rate)” value in test [1] (topical 10 μg PEP005, combined PEP005/PEP005+M720 group n=10, tumors 8-12 mm^2) is recorded as 90%. Further, the “growth of secondary tumors” value is recorded as “slightly delayed” in test [2] (PEP005 regressed but failed to cure the primary tumors (n=5), not significant) and “failed to reduce the growth of the secondary tumors” in test [2] (no primary tumors, PEP005 s.c. at a site distant from the secondary tumors). In test [2] (primary tumor cured by i.t. PEP005 (n=8), secondary inoculated d4 on opposite flank), the “animals in which secondary tumors failed to appear” value is given as 50%. The “emergence of secondary tumors” value in test [2] (primary tumor cured by i.t. PEP005 (n=8), log rank p=0.002) is listed as “significantly delayed”.
